Laboratory results: patent publication US20210236575A1 (priority 2018, published 2021)
Like-named read-outs stand apart in the source and are kept apart here.

Key:
[1] = system: NF-κB; assay: NF-κB luciferase assay, TNFα-induced, NIH-3T3-KBF-Luc cells
[2] = target: T1, CB1R (Homo sapiens, UniProt P21554); assay: cell-based
T1 construct: expressed in transfected cells; host or cells: HEK293T (HEK293T-CB1), transiently co-transfected with CRE-luc reporter

[3] = target: T2, COX-2 (Homo sapiens, UniProt P35354); settings: Takeda et al 2008; cited from earlier work
T2 sequence (P35354 18-604): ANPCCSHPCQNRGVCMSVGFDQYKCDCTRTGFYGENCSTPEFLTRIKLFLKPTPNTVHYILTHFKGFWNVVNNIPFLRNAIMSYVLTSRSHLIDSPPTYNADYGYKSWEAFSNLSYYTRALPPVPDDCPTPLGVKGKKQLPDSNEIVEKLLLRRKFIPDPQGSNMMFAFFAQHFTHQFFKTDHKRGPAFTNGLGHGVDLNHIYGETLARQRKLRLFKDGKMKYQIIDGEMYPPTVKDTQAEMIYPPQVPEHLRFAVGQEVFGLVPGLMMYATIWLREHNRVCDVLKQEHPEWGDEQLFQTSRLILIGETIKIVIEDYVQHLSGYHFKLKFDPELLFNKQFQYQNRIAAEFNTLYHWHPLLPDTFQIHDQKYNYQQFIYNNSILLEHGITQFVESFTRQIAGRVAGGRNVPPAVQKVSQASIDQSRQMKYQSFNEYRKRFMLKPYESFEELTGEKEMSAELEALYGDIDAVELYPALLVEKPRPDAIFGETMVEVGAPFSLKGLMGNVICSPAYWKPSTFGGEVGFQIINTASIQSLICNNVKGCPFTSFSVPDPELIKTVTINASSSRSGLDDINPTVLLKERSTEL

[4] = target: T1, CB1R; type: cell-based
[5] = target: CB2R (Homo sapiens, UniProt P34972); assay: CB2R agonism assay, HEK293T-CB2 cells with CRE-Luc reporter, forskolin-stimulated; settings: for Conclusions: Is CB2R agonist effect observed? / Experiment 1 % of activity / Experiment 2 % of activity / Experiment 3 % of activity: THC 10 μM or THCA 10 μM alone; for Experiment 1 % of activity / Experiment 2 % of activity / Experiment 3 % of activity: forskolin = 100%
Chain of CB2R (P34972 whole entry): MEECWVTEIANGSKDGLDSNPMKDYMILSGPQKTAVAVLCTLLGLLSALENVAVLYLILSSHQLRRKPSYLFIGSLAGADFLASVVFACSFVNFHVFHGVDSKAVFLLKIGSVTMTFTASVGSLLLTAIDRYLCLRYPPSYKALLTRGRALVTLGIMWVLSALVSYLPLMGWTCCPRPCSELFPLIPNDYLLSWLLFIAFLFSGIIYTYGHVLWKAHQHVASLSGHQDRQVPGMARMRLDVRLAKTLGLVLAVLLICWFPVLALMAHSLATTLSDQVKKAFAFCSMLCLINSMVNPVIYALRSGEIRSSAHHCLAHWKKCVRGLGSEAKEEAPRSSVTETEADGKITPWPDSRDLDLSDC

[6] = read-out: Experiment 1 % of activity
[7] = read-out: Experiment 2 % of activity
[8] = read-out: Experiment 3 % of activity
[9] = THC 10 μM or CBD 10 μM alone, TNFα = 100%
[10] = THCA 10 μM or THC 10 μM alone, CP55940 = 100%
[11] = TNFα 30 ng/mL (control without inhibitor)

T1 sequence (P21554 whole entry): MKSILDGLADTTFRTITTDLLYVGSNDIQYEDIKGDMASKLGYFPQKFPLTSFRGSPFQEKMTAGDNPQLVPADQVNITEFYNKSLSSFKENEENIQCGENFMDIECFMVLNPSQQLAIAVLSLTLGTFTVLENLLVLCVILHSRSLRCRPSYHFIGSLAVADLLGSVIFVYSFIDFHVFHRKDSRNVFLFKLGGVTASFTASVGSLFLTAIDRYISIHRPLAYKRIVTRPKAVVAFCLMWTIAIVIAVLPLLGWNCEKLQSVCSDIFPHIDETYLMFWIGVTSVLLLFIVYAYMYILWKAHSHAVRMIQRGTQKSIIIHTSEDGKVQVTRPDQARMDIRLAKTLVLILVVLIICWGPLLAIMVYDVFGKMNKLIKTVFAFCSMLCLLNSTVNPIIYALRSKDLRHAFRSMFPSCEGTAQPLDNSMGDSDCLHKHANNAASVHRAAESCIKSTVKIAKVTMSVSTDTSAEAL

## C=C(C)[C@@H]1CCC(C)=C[C@H]1c1c(O)cc(CCCCC)cc1O [CBD, cannabidiol]
[1]; THC 10 μM or CBD 10 μM alone
  Conclusions: Is NF-κB inhibitor effect observed?: Negative
[1]; [6]
  activity at 10 µM: 136%
[1]; [7]
  activity at 10 µM: 86.4%
[1]; [8]
  activity at 10 µM: 106%
[2]; CBD 1 μM alone
  Conclusions: Is CB1R antagonist effect observed?: Negative
[2]; CBD 1 μM alone, CP55940 = 100%, read-out: Experiment 1 % of activity
  activity at 1 µM: 61.3%
[2]; CBD 1 μM alone, CP55940 = 100%, read-out: Experiment 2 % of activity
  activity at 1 µM: 55.9%
[2]; CBD 1 μM alone, CP55940 = 100%, read-out: Experiment 3 % of activity
  activity at 1 µM: 57.4%

## C=C(C)[C@@H]1CCC(C)=C[C@H]1c1c(O)cc(CCCCC)c(C(=O)O)c1O [CBDA, cannabidiolic acid]
[3]
  selectivity for COX-2 than COX-1 inhibition: 9 fold

## CCCCCCC(C)(C)c1ccc([C@@H]2C[C@H](O)CC[C@H]2CCCO)c(O)c1 [CP]
[2]
  Conclusions: Is CB1R antagonist effect observed?: Negative
[2]; [6]
  activity at 5 µM: 100%
[2]; [7]
  activity at 5 µM: 100%
[2]; [8]
  activity at 5 µM: 100%
[4]
  Conclusions: Is CB1R agonist effect observed?: + (key: +: positive result (CB1R activity ≥2.5-fold increase) are considered agonists of CB1R activity)
  Experiment 1 Fold change: 2.5 fold
  Experiment 2 Fold change: 2.5 fold
  Experiment 3 Fold change: 2.5 fold

## COc1cc(/C=C/C(=O)CC(=O)/C=C/c2ccc(O)c(OC)c2)ccc1O [Curcumin, diferuloylmethane (curcumin)]
[1]; Curcumin 5 μM, alone or + THC 10 μM or + CBD 10 μM
  Conclusions: Is NF-κB inhibitor effect observed?: + (positive result (activity ≤50%) are considered inhibitory of NF-κB activity)
[1]; Curcumin 10 μM, alone or + THC 10 μM or + CBD 10 μM
  Conclusions: Is NF-κB inhibitor effect observed?: + (positive result (activity ≤50%) are considered inhibitory of NF-κB activity)
[1]; Curcumin 15 μM, alone or + THC 10 μM or + CBD 10 μM
  Conclusions: Is NF-κB inhibitor effect observed?: + (positive result (activity ≤50%) are considered inhibitory of NF-κB activity)
[1]; read-out: anti-NF-κB IC50
  IC50: 0.00391 mM
[5]
  EC50: 5.97 mM

## C=C[C@@]1(C)CC(=O)[C@]2(O)[C@@]3(C)[C@@H](O)CCC(C)(C)[C@@H]3[C@H](O)[C@H](OC(C)=O)[C@@]2(C)O1 [Forskolin]
[5]; [6]
  activity at 1 µM: 100%
[5]; [7]
  activity at 1 µM: 100%
[5]; [8]
  activity at 1 µM: 100%

## CCCCCc1cc(O)c2c(c1)OC(C)(C)[C@@H]1CCC(C)=C[C@@H]21 [THC, tetrahydrocannabinol]
[1]; THC 10 μM or CBD 10 μM alone
  Conclusions: Is NF-κB inhibitor effect observed?: Negative
[1]; [9]
  Experiment 1 % of activity: 122.2%
  Experiment 2 % of activity: 84.9%
  Experiment 3 % of activity: 88.8%
[5]
  Conclusions: Is CB2R agonist effect observed?: Negative
  Experiment 1 % of activity: 54.7%
  Experiment 2 % of activity: 73.7%
  Experiment 3 % of activity: 60.3%

## CCCCCc1cc2c(c(O)c1C(=O)O)[C@@H]1C=C(C)CC[C@H]1C(C)(C)O2 [THCA, tetrahydrocannabinolic acid]
[2]; THCA 10 μM or THC 10 μM alone
  Conclusions: Is CB1R antagonist effect observed?: Negative
[2]; [10]
  Experiment 1 % of activity: 116.7%
  Experiment 2 % of activity: 116.0%
  Experiment 3 % of activity: 56.4%
[5]
  Conclusions: Is CB2R agonist effect observed?: Negative
  Experiment 1 % of activity: 115.6%
  Experiment 2 % of activity: 105.6%
  Experiment 3 % of activity: 124.6%
[4]; THCA 10 μM or THC 10 μM alone
  Conclusions: Is CB1R agonist effect observed?: Negative
  Experiment 1 Fold change: 0.9 fold
  Experiment 2 Fold change: 0.8 fold
  Experiment 3 Fold change: 1.1 fold

## TNFα
[1]; [11]
  Conclusions: Is NF-κB inhibitor effect observed?: Negative
  Experiment 1 % of activity: 100.0%
  Experiment 2 % of activity: 100.0%
  Experiment 3 % of activity: 100.0%
